From patent publication US10512265B2, “Pesticidally active heterocyclic derivatives with sulphur containing substituents” (Syngenta Participations AG, priority 2015, dated 2019)

What was measured:
Format in all cases: in vivo
[1] = system: Myzus persicae (green peach aphid); test: Example B5: activity against Myzus persicae, sprayed sunflower leaf discs; details: foliar, 144 h, application rate 200 ppm, aphid population of mixed ages, 6 days after infestation
Procedure: Example B5: Activity Against Myzus persicae (Green Peach Aphid)
Sunflower leaf discs were placed on agar in a 24-well microtiter plate and sprayed with aqueous test solutions prepared from 10′000 ppm DMSO stock solutions. After drying, the leaf discs were infested with an aphid population of mixed ages. The samples were assessed for mortality 6 days after infestation.

[2] = system: Aedes aegypti (yellow fever mosquito); test: Example B11: activity against Aedes aegypti, dry deposits in tissue culture plates; details: 200 ppm in ethanol, dry deposit, adult females, after 48 h and/or 24 h
Procedure: Example B11: Activity Against Aedes Aegypti (Yellow Fever Mosquito)
Test solutions, at an application rate of 200 ppm in ethanol, were applied to 12-well tissue culture plates. Once the deposits were dry, five, two to five days old adult female Aedes aegypti were added to each well, and sustained with a 10% sucrose solution in a cotton wool plug. Assessment of knockdown was made one hour after introduction, and mortality was assessed at 24 and 48 hours after introduction.

[3] = system: Plutella xylostella (diamond back moth); test: Example B3: activity against Plutella xylostella, treated artificial diet; details: 120 h, application rate 200 ppm, L2 larvae, 5 days after infestation, read-out: effect in at least one of the two categories (mortality or growth inhibition)
Procedure: Example B3: Activity Against Plutella xylostella (Diamond Back Moth)
24-well microtiter plates with artificial diet were treated with aqueous test solutions prepared from 10′000 ppm DMSO stock solutions by pipetting. After drying, the plates were infested with L2 larvae (10 to 15 per well). The samples were assessed for mortality and growth inhibition in comparison to untreated samples 5 days after infestation.

[4] = system: Frankliniella occidentalis (western flower thrips); test: Example B7: activity against Frankliniella occidentalis, sprayed sunflower leaf discs; details: foliar, 168 h, application rate 200 ppm, population of mixed ages, 7 days after infestation
Procedure: Example B7: Activity Against Frankliniella occidentalis (Western Flower Thrips)
Sunflower leaf discs were placed on agar in 24-well microtiter plates and sprayed with aqueous test solutions prepared from […] stock solutions. After drying the leaf discs were infested with a Frankliniella population of mixed ages. The samples were assessed for mortality 7 days after infestation.

[5] = system: Spodoptera littoralis (Egyptian cotton leaf worm); test: Example B1: activity against Spodoptera littoralis, sprayed cotton leaf discs; details: foliar, 72 h, application rate 200 ppm, L1 larvae, 3 days after infestation, read-out: control of Spodoptera littoralis (at least one of mortality, anti-feedant effect, growth inhibition)
Procedure: Example B1: Activity Against Spodoptera littoralis (Egyptian Cotton Leaf Worm)
Cotton leaf discs were placed on agar in 24-well microtiter plates and sprayed with aqueous test solutions prepared from 10′000 ppm DMSO stock solutions. After drying the leaf discs were infested with five L1 larvae. The samples were assessed for mortality, anti-feedant effect, and growth inhibition in comparison to untreated samples 3 days after infestation. Control of Spodoptera littoralis by a test sample is when at least one of mortality, anti-feedant effect, and growth inhibition is higher than the untreated sample.

[6] = system: Tetranychus urticae (two-spotted spider mite); test: Example B10: activity against Tetranychus urticae, sprayed bean leaf discs; details: foliar, 192 h, application rate 200 ppm, mixed population (mobile stages), 8 days after infestation
Procedure: Example B10: Activity Against Tetranychus urticae (Two-Spotted Spider Mite)
Bean leaf discs on agar in 24-well microtiter plates were sprayed with aqueous test solutions prepared from 10′000 ppm DMSO stock solutions. After drying the leaf discs were infested with a mite population of mixed ages. The samples were assessed for mortality on mixed population (mobile stages) 8 days after infestation.

[7] = system: Diabrotica balteata (corn root worm); test: Example B4: activity against Diabrotica balteata, sprayed maize sprouts; details: 96 h, application rate 200 ppm, L2 larvae, 4 days after infestation, read-out: effect in at least one of the two categories (mortality or growth inhibition)
Procedure: Example B4: Activity Against Diabrotica Balteata (Corn Root Worm)
Maize sprouts, placed on an agar layer in 24-well microtiter plates were treated with aqueous test solutions prepared from 10′000 ppm DMSO stock solutions by spraying. After drying, the plates were infested with L2 larvae (6 to 10 per well). The samples were assessed for mortality and growth inhibition in comparison to untreated samples 4 days after infestation.

[8] = system: Spodoptera littoralis (Egyptian cotton leaf worm); test: Example B2: activity against Spodoptera littoralis, systemic via lettuce grown on treated agar; details: 144 h, test rate 12.5 ppm, in agar, uptake by lettuce roots, Spodoptera eggs, 6 days after infestation, read-out: effect in at least one of the three categories (mortality, anti-feedancy, or growth inhibition)
Source text: Example B2: Activity Against Spodoptera littoralis (Egyptian Cotton Leaf Worm)
Test compounds were applied by pipette from 10′000 ppm DMSO stock solutions into 24-well plates and mixed with agar. Lettuce seeds were placed on the agar and the multi well plate was closed by another plate which contains also agar. After 7 days the roots have absorbed the compound and the lettuce has grown into the lid plate. The lettuce leafs were now cut off into the lid plate. Spodoptera eggs were pipetted through a plastic stencil on a humid gel blotting paper and the plate closed with it.
The samples were assessed for mortality, anti-feedant effect and growth inhibition in comparison to untreated samples 6 days after infestation.

CCS(=O)(=O)c1cc(-c2ccc(F)cc2)cnc1-c1ncc(-c2ccc(C(F)(F)F)nc2)n1C [Compound P3, 3-ethylsulfonyl-5-(4-fluorophenyl)-2-[1-methyl-5-[6-(trifluoromethyl)-3-pyridyl]imidazol-2-yl]pyridine]
≥ 80%: mortality at 200 ppm [1] | pest or weed control at 200 ppm [2] | percent effect (mortality or growth inhibition) at 200 ppm [3] | mortality at 200 ppm [4] | mortality at 200 ppm [5] | mortality at 200 ppm [6] | percent effect (mortality or growth inhibition) at 200 ppm [7] | percent control (mortality, anti-feedancy or growth inhibition) at 12.5 ppm [8]
